ChEMBL document CHEMBL5360571, “Design, synthesis and in vitro/in vivo anticancer activity of tranylcypromine-based triazolopyrimidine analogs as novel LSD1 inhibitors” (Eur J Med Chem, 2023)

Columns and labels:
MGC-803 [1] = experiment: cells; conditions: Homo sapiens, MGC-803, 72 h
Description: Antiproliferative activity against human MGC-803 cells incubated for 72 hrs by MTT assay

NCI-H1650 [2] = experiment: Induction of apoptosis in human NCI-H1650 cells assessed as late apoptotic cells measured at 1 uM for 24 hrs by annexin V-PI staining based flow cytometric analysis (reference value: 1.46%); type: functional
NCI-H1650 [3] = experiment: Induction of cell cycle arrest in human NCI-H1650 cells assessed as accumulation of cells in G1 phase measured at 4 uM for 24 hrs by annexin V-PI staining based flow cytometric analysis (reference value: 52.04%); type: functional
NCI-H1650 [4] = experiment: Induction of apoptosis in human NCI-H1650 cells assessed as early apoptotic cells measured at 2 uM for 24 hrs by annexin V-PI staining based flow cytometric analysis (reference value: 11.2%); type: functional
NCI-H1650 [5] = experiment: Induction of cell cycle arrest in human NCI-H1650 cells assessed as accumulation of cells in G1 phase measured at 1 uM for 24 hrs by annexin V-PI staining based flow cytometric analysis (reference value: 52.04%); type: functional
NCI-H1650 [6] = experiment: Induction of apoptosis in human NCI-H1650 cells assessed as late apoptotic cells measured at 2 uM for 24 hrs by annexin V-PI staining based flow cytometric analysis (reference value: 1.46%); type: functional
GES1 = experiment: cells; conditions: Homo sapiens, GES1, 72 h
Description: Antiproliferative activity against human GES1 cells incubated for 72 hrs by MTT assay

NCI-H1650 [7] = experiment: Induction of apoptosis in human NCI-H1650 cells assessed as viable cells measured at 4 uM for 24 hrs by annexin V-PI staining based flow cytometric analysis (reference value: 87.4%); type: functional; conditions: read-out: Activity
NCI-H1650 [8] = experiment: Induction of apoptosis in human NCI-H1650 cells assessed as necrotic cells measured at 1 uM for 24 hrs by annexin V-PI staining based flow cytometric analysis (reference value: 0.008%); type: functional
NCI-H1650 [9] = experiment: Induction of apoptosis in human NCI-H1650 cells assessed as apoptotic cells measured at 4 uM for 24 hrs by annexin V-PI staining based flow cytometric analysis (reference value: 12.7%); type: functional
NCI-H1650 [10] = experiment: Induction of apoptosis in human NCI-H1650 cells assessed as apoptotic cells measured at 1 uM for 24 hrs by annexin V-PI staining based flow cytometric analysis (reference value: 12.7%); type: functional
NCI-H1650 [11] = experiment: Antitumor activity against human NCI-H1650 cells xenografted in mouse assessed as reduction of tumor weight at 20 mg/kg, po for 21 days relative to control; type: ADME, organism-based; design: scale not given: the % may be the effect or the level left; conditions: in vivo, 504 h, time 21 day
NCI-H1650 [12] = experiment: Induction of apoptosis in human NCI-H1650 cells assessed as viable cells measured at 1 uM for 24 hrs by annexin V-PI staining based flow cytometric analysis (reference value: 87.4%); type: functional; conditions: read-out: Activity
ECa-109 cell line = experiment: cells; conditions: Homo sapiens, ECa-109, 72 h
Description: Antiproliferative activity against human EC109 cells incubated for 72 hrs by MTT assay

[13] = molecular target: T1, MAO-A (amine oxidase [flavin-containing] A) (Homo sapiens, UniProt P21397); experiment: Inhibition of recombinant MAO-A (unknown origin) using luciferin derivative as substrate measured at 1 uM for 60 mins by plate reader analysis relative to control; conditions: probe luciferin derivative
T1 sequence (P21397 whole entry): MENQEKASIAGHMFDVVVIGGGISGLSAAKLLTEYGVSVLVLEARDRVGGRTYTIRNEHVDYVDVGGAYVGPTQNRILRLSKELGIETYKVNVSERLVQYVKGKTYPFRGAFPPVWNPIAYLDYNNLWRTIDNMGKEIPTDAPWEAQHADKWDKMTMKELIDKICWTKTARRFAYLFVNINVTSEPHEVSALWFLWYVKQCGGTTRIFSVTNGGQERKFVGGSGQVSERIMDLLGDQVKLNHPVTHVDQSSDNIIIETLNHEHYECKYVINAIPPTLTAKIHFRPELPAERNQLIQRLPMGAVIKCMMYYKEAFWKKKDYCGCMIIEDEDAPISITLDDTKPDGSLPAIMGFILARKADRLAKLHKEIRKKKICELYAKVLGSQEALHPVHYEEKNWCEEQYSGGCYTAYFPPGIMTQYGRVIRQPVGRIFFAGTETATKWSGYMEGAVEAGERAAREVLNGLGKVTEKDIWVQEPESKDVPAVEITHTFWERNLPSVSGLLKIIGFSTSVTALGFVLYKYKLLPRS

[14] = Toxicity in mouse xenografted with human NCI-H1650 cells assessed as increase in survival rate at 10 to 20 mg/kg, po treated for 21 days measured every 10 days for 50 days; type: organism-based; conditions: in vivo, 504 h, dose 10-20 mg/kg, time 21 day
NCI-H1650 [15] = experiment: Induction of apoptosis in human NCI-H1650 cells assessed as early apoptotic cells measured at 4 uM for 24 hrs by annexin V-PI staining based flow cytometric analysis (reference value: 11.2%); type: functional
NCI-H460 = experiment: cells; conditions: Homo sapiens, NCI-H460, 72 h
Description: Antiproliferative activity against human NCI-H460 cells incubated for 72 hrs by MTT assay

A549 = experiment: cells; conditions: Homo sapiens, A549, 72 h
Description: Antiproliferative activity against human A549 cells incubated for 72 hrs by MTT assay

NCI-H1650 [16] = experiment: Induction of cell cycle arrest in human NCI-H1650 cells assessed as accumulation of cells in S phase measured at 2 uM for 24 hrs by annexin V-PI staining based flow cytometric analysis (reference value: 29.97%); type: functional
[17] = molecular target: T2, MAO-B (amine oxidase [flavin-containing] B) (Homo sapiens, UniProt P27338); experiment: Inhibition of recombinant MAO-B (unknown origin) using luciferin derivative as substrate measured at 1 uM for 60 mins by plate reader analysis relative to control; conditions: probe luciferin derivative
T2 sequence (P27338 whole entry): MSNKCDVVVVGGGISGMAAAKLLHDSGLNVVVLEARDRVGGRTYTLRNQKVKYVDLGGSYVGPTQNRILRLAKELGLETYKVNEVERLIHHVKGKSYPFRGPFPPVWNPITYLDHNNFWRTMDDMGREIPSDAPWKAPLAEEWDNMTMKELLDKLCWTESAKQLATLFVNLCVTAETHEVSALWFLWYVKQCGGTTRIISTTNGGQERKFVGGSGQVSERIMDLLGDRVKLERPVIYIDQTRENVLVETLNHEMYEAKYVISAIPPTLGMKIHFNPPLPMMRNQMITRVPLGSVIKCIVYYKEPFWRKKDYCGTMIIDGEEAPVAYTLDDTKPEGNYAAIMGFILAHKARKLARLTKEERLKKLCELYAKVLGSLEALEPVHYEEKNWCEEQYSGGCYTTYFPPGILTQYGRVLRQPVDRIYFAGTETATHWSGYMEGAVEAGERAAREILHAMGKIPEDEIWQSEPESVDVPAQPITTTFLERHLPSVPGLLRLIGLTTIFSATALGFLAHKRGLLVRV

NCI-H1650 [18] = experiment: Induction of apoptosis in human NCI-H1650 cells assessed as viable cells measured at 2 uM for 24 hrs by annexin V-PI staining based flow cytometric analysis (reference value: 87.4%); type: functional; conditions: read-out: Activity
NCI-H1650 [19] = experiment: Induction of cell cycle arrest in human NCI-H1650 cells assessed as accumulation of cells in S phase measured at 1 uM for 24 hrs by annexin V-PI staining based flow cytometric analysis (reference value: 29.97%); type: functional
NCI-H1650 [20] = experiment: Induction of apoptosis in human NCI-H1650 cells assessed as necrotic cells measured at 2 uM for 24 hrs by annexin V-PI staining based flow cytometric analysis (reference value: 0.008%); type: functional
SGC-7901 = experiment: cells; conditions: Homo sapiens, SGC-7901, 72 h
Description: Antiproliferative activity against human SGC-7901 cells incubated for 72 hrs by MTT assay

NCI-H1650 [21] = experiment: Induction of cell cycle arrest in human NCI-H1650 cells assessed as accumulation of cells in G2 phase measured at 4 uM for 24 hrs by annexin V-PI staining based flow cytometric analysis (reference value: 18.00%); type: functional
NCI-H1650 [22] = experiment: Antitumor activity against human NCI-H1650 cells xenografted in mouse assessed as reduction of tumor weight at 10 mg/kg, po for 21 days relative to control; type: ADME, organism-based; design: scale not given: the % may be the effect or the level left; conditions: in vivo, 504 h, time 21 day
NCI-H1650 [23] = experiment: Induction of cell cycle arrest in human NCI-H1650 cells assessed as accumulation of cells in G1 phase measured at 2 uM for 24 hrs by annexin V-PI staining based flow cytometric analysis (reference value: 52.04%); type: functional
[24] = Toxicity in mouse xenografted with human NCI-H1650 cells assessed as change in body weight at 10 to 20 mg/kg, po measured every 4 days for 21 days; type: organism-based; conditions: in vivo, 504 h, dose 10-20 mg/kg, time 21 day
NCI-H1650 [25] = experiment: Induction of apoptosis in human NCI-H1650 cells assessed as early apoptotic cells measured at 1 uM for 24 hrs by annexin V-PI staining based flow cytometric analysis (reference value: 11.2%); type: functional
NCI-H1650 [26] = experiment: Induction of cell cycle arrest in human NCI-H1650 cells assessed as accumulation of cells in G2 phase measured at 2 uM for 24 hrs by annexin V-PI staining based flow cytometric analysis (reference value: 18.00%); type: functional
MGC-803 [27] = experiment: cells; conditions: Homo sapiens, MGC-803, 72 h; remark: listed apart in the source
Description: Antiproliferative activity against human MGC-803 LSD knock out cells incubated for 72 hrs by MTT assay

NCI-H1650 [28] = experiment: cells; conditions: Homo sapiens, NCI-H1650, 72 h
Description: Antiproliferative activity against human NCI-H1650 cells incubated for 72 hrs by MTT assay

MCF7 = experiment: cells; conditions: Homo sapiens, MCF7, 72 h
Description: Antiproliferative activity against human MCF7 cells incubated for 72 hrs by MTT assay

NCI-H1650 [29] = experiment: Induction of apoptosis in human NCI-H1650 cells assessed as apoptotic cells measured at 2 uM for 24 hrs by annexin V-PI staining based flow cytometric analysis (reference value: 12.7%); type: functional
NCI-H1650 [30] = experiment: Induction of cell cycle arrest in human NCI-H1650 cells assessed as accumulation of cells in G2 phase measured at 1 uM for 24 hrs by annexin V-PI staining based flow cytometric analysis (reference value: 18.00%); type: functional
NCI-H1650 [31] = experiment: Induction of cell cycle arrest in human NCI-H1650 cells assessed as accumulation of cells in S phase measured at 4 uM for 24 hrs by annexin V-PI staining based flow cytometric analysis (reference value: 29.97%); type: functional
PC-3 = experiment: cells; conditions: Homo sapiens, PC-3, 72 h
Description: Antiproliferative activity against human PC-3 cells incubated for 72 hrs by MTT assay

NCI-H1650 [32] = experiment: Induction of apoptosis in human NCI-H1650 cells assessed as necrotic cells measured at 4 uM for 24 hrs by annexin V-PI staining based flow cytometric analysis (reference value: 0.008%); type: functional
NCI-H1650 [33] = experiment: Induction of apoptosis in human NCI-H1650 cells assessed as late apoptotic cells measured at 4 uM for 24 hrs by annexin V-PI staining based flow cytometric analysis (reference value: 1.46%); type: functional

Work on CCCSc1nc(Oc2c(OC)cc(CN[C@@H]3C[C@H]3c3ccccc3)cc2OC)c2nnn(Cc3cccc(Cl)c3)c2n1 yielded an IC50 (MGC-803 [1]) of 5.1 µM, an Activity (NCI-H1650 [2]) of 3.6% and an Activity (NCI-H1650 [3]) of 48.98%. It also gave an Activity (NCI-H1650 [4]) of 38.5%, an Activity (NCI-H1650 [5]) of 51.44% and an Activity (NCI-H1650 [6]) of 6.02%. The IC50 (GES1) was greater than 20 µM, the viability at 4 µM (NCI-H1650 [7]) was 54.3% and the Activity (NCI-H1650 [8]) was 0.022%. For the same molecule, the Activity (NCI-H1650 [9]) was 45.7%, the Activity (NCI-H1650 [10]) was 43.9% and the Activity (NCI-H1650 [11]) was 64%. It also gave a viability at 1 µM (NCI-H1650 [12]) of 56.1%, an IC50 (ECa-109 cell line) of 15.2 µM and an inhibition at 1 h, 1 µM [13] of 25.5%. For the same molecule, the Activity [14] was “Non-Toxic”, the Activity (NCI-H1650 [15]) was 38.4% and the IC50 (NCI-H460) was 13.6 µM. It also gave an IC50 (A549) of 7.9 µM, an Activity (NCI-H1650 [16]) of 39.81% and an inhibition at 1 h, 1 µM [17] of 52%. The viability at 2 µM (NCI-H1650 [18]) was 55.4%, the Activity (NCI-H1650 [19]) was 33.32% and the Activity (NCI-H1650 [20]) was 0.138%. For the same molecule, the IC50 (SGC-7901) was 9.5 µM, the Activity (NCI-H1650 [21]) was 7.76% and the Activity (NCI-H1650 [22]) was 41.5%. The Activity (NCI-H1650 [23]) was 49.59%, the Activity [24] was “Non-Toxic” and the Activity (NCI-H1650 [25]) was 40.3%. For the same molecule, the Activity (NCI-H1650 [26]) was 10.6%, the IC50 (MGC-803 [27]) was greater than 20 µM and the IC50 (NCI-H1650 [28]) was 4.3 µM. It also gave an IC50 (MCF7) of 13.4 µM, an Activity (NCI-H1650 [29]) of 44.5% and an Activity (NCI-H1650 [30]) of 15.24%. The Activity (NCI-H1650 [31]) was 43.26%, the IC50 (PC-3) was 7.5 µM and the Activity (NCI-H1650 [32]) was 0.041%. The Activity (NCI-H1650 [33]) was 7.32%.
